Assay results from US11351178B2, “Selective HDAC6 inhibitors” (ITALFARMACO S.P.A., priority 2017, dated 2022).

Experiments:
[1] = Stability to Phase I metabolism in rat S9 liver fraction; type: in vitro ADME; conditions: after 90 min, 37° C.
In short: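 Compounds were incubated with rat or human liver S9 fraction at 37 °C for up to 90 min. Reactions were quenched on ice with acidified acetonitrile and analysed by HPLC-UV or LC-MS/MS. Percent remaining versus time zero and intrinsic clearance were calculated.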

[2] = Stability in human plasma; type: in vitro ADME; conditions: after 4 hours, 37° C.
Protocol: In order to evaluate the stability to circulating enzymes, test compounds were incubated in human and rat plasma at 37° C. in a thermostated oscillating bath. Each test compound was incubated at μM (50 μM when the samples were analysed by UV/HPLC, 1 or 2 μM when the samples were analysed by LC-MS/MS) concentration for 0, 15, 30 min and 1, 2 and 4 hours. The reaction was stopped placing tubes on ice bath and adding acidified acetonitrile. After centrifugation for 10 minutes at 14000 rpm, an aliquot of the supernatant was diluted with water, filtered with 0.45 μm syringe filters and injected in HPLC-UV or in LC-MS/MS. The percentages of amount remaining at the various times of incubation with respect to initial amount were calculated. The half-life in plasma was also calculated.

[3] = Stability in rat plasma; type: in vitro ADME; conditions: after 4 hours, 37° C.
In short: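 Compounds incubated at 37° C in rat or human plasma at 50 μM (UV/HPLC) or 1 or 2 μM (LC-MS/MS) for 0–4 h. Reaction stopped with acidified acetonitrile on ice; percent remaining versus initial amount and plasma half-life calculated.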

[4] = tested on: B 697 promyelocytic cell line; assay: Cytotoxicity on 697 cell line (CellTiter 96); type: cell-based; conditions: 72 hours incubation, read-out: 697 TOXICITY
In short: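 Cells seeded (2×10^4/well for 697, 5×10^5/well for PBMCs); compounds added after 24 h at 1–10000 nM (697) or 1.5–10000 nM (PBMCs) and incubated 72 h. Viability read by CellTiter 96 Aqueous One tetrazolium assay of mitochondrial function.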

[5] = target: T1, recombinant human HDAC6 (Homo sapiens, UniProt Q9UBN7); assay: Enzymatic screening on recombinant human HDAC6; type: biochemical; conditions: Table 2; read-out: HDAC6 IC50
T1 sequence (Q9UBN7 1-1215): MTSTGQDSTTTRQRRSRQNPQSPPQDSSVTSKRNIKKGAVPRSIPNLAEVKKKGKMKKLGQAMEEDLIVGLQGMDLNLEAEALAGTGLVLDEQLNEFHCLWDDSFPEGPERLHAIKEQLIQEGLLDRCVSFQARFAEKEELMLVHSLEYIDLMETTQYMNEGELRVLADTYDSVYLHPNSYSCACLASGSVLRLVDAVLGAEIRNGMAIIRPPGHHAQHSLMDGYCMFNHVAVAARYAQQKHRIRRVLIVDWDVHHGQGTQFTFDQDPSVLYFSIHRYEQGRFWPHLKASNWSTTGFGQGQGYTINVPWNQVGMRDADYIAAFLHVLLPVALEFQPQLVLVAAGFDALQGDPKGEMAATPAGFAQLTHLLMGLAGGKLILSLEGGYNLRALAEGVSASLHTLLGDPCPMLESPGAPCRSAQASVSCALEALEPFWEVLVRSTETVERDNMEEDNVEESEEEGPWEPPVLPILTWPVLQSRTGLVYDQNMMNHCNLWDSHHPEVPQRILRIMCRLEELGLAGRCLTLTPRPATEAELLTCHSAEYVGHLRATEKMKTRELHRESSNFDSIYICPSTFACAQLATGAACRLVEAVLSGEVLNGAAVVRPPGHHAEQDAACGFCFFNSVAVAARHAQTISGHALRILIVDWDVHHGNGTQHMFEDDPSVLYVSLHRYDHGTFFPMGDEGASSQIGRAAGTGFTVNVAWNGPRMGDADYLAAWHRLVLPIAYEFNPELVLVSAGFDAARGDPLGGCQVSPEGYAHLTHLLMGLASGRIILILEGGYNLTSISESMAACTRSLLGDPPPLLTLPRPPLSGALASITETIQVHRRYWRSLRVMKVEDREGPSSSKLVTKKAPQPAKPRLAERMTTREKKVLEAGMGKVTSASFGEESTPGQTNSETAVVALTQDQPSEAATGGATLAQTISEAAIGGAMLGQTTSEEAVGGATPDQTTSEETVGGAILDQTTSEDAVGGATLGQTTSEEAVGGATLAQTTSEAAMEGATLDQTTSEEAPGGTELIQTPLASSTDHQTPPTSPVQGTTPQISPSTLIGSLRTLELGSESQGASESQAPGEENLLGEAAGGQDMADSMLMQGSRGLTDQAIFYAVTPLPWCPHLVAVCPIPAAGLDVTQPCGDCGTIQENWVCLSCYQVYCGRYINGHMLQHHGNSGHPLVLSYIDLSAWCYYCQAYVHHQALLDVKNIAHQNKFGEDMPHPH
In short: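 Recombinant human enzyme was incubated with compound at 30 °C for an isoform-dependent time, then substrate (FLUOR DE LYS, FLUOR DE LYS-Green or trifluoroacetyl-L-lysine) was added as a 2× solution in 25 mM Tris-HCl pH 8, 130 mM NaCl, 0.05% Tween-20, 10% glycerol. The deacetylation reaction then proceeded at 30 °C.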

[6] = Stability to Phase I metabolism in human S9 liver fraction; type: in vitro ADME
Protocol: Test compounds were incubated in rat and human liver S9 fraction at 37° C. up to 90 minutes in order to evaluate their stability to Phase I metabolism by hepatic enzymes. […] The reaction was stopped placing samples on ice bath and adding acidified acetonitrile. After centrifugation (10 minutes at 14000 rpm) an aliquot of the supernatant was diluted water, filtered with 0.45 μm regenerated cellulose syringe filters and injected in HPLC-UV or in LC-MS/MS. The percentages of the amount remaining at the various incubation times with respect to the initial amount were calculated. The intrinsic clearance was also calculated.

| Structure (SMILES) | residual percentage in rat S9 fraction [1] [%] | residual percentage in human plasma [2] [%] | residual percentage in rat plasma [3] [%] | IC50 [4] [nM] | IC50 [5] [nM] | residual percentage in human S9 fraction ([6]; human, 90 min, pH 7.4) [%] | residual percentage in human S9 fraction ([6]; human liver S9 fraction, after 90 min, 37° C.) [%] |
| --- | --- | --- | --- | --- | --- | --- | --- |
| Cn1c(Sc2c(F)cc(C(=O)NO)cc2F)nnc1-c1ccc(CN2CCOCC2)o1 [comp. 204, 3,5-difluoro-4-[[4-methyl-5-[5-(morpholinomethyl)-2-furyl]-1,2,4-triazol-3-yl]sulfanyl]benzenecarbohydroxamic acid] | 72 | 79 | 89 | 15400 | 7 | 84 |  |
| CN1CCN(Cc2ccc(-c3nnc(Sc4c(F)cc(C(=O)NO)cc4F)n3C)o2)CC1 [comp. 205, 3,5-difluoro-4-[[4-methyl-5-[5-[(4-methylpiperazin-1-yl)methyl]-2-furyl]-1,2,4-triazol-3-yl]sulfanyl]benzenecarbohydroxamic acid] | 71 | 80 | 89 | 15400 | 5 | 95 |  |
| CCc1oc(-c2nnc(Sc3c(F)cc(C(=O)NO)cc3F)n2C)cc1CN1CCCC1 [comp. 208, 4-[[5-[5-ethyl-4-(pyrrolidin-1-ylmethyl)-2-furyl]-4-methyl-1,2,4-triazol-3-yl]sulfanyl]-3,5-difluoro-benzenecarbohydroxamic acid] | 81 | 87 | 81 | 15400 | 4 | 81 |  |
| CN1CCN(Cc2ccc(-c3nnc(Sc4ccc(C(=O)NO)cc4)n3C)o2)CC1 [comp. 209, 4-[[4-methyl-5-[5-[(4-methylpiperazin-1-yl)methyl]-2-furyl]-1,2,4-triazol-3-yl]sulfanyl]benzenecarbohydroxamic acid] | 84 | 77 | 69 | 15400 | 11 | 100 |  |
| Cn1c(Sc2c(F)cc(C(=O)NO)cc2F)nnc1-c1ccc(CN2CCCCC2)o1 [comp. 212, 3,5-difluoro-4-[[4-methyl-5-[5-(1-piperidylmethyl)-2-furyl]-1,2,4-triazol-3-yl]sulfanyl]benzenecarbohydroxamic acid] | 60 | 83 | 81 | 15400 | 6 | 75 |  |
| CCN(CC)Cc1cc(-c2nnc(Sc3c(F)cc(C(=O)NO)cc3F)n2C)c(C)o1 [comp. 213, 4-[[5-[5-(diethylaminomethyl)-2-methyl-3-furyl]-4-methyl-1,2,4-triazol-3-yl]sulfanyl]-3,5-difluoro-benzenecarbohydroxamic acid] | 58 | 97 | 80 | 15400 | 13 | 63 |  |
| O=C(NO)c1ccc(Cn2nnc(-c3ccccc3)n2)cc1 [comp. 214, 4-[(5-phenyltetrazol-2-yl)methyl]benzenecarbohydroxamic acid] | 9 | 92 | 60 | 409 | 3 | 73 |  |
| O=C(NO)c1ccc(Cn2nnnc2-c2ccccc2)cc1 [comp. 215, 4-[(5-phenyltetrazol-1-yl)methyl]benzenecarbohydroxamic acid] | 65 | 90 | 57 | 340 |  | 82 |  |
| O=C(NO)c1ccc(Cc2nnc(-c3ccccc3)[nH]2)cc1 [comp. 216, 4-[(5-phenyl-4H-1,2,4-triazol-3-yl)methyl]benzenecarbohydroxamic acid] | 62 | 91 | 89 | 288 |  | 84 |  |
| O=C(NO)c1cc(F)c(Sc2nnc(-c3cncc(Br)c3)s2)c(F)c1 [compound 196, 4-[[5-(5-bromo-3-pyridyl)-1,3,4-thiadiazol-2-yl]sulfanyl]-3,5-difluoro-benzenecarbohydroxamic acid] | 23 | 89 | 99 |  | 53 | 26 |  |
| O=C(NO)c1cc(F)c(Cc2nnc(-c3cncc(N4CCOCC4)c3)s2)c(F)c1 [compound 197, 3,5-difluoro-4-[[5-(5-morpholino-3-pyridyl)-1,3,4-thiadiazol-2-yl]methyl]benzenecarbohydroxamic acid] | 62 | 96 | 82 |  | 10 | 86 |  |
| O=C(NO)c1cc(F)c(Cc2nnc(-c3ccccc3)s2)c(F)c1 [compound 198, 3,5-difluoro-N-hydroxy-4-((5-phenyl-1,3,4-thiadiazol-2-yl)methyl)benzamide] | 6 | 95 | 63 |  | 5 | 51 |  |
| COCCN(CCOC)c1cncc(-c2nc(Cc3c(F)cc(C(=O)NO)cc3F)no2)c1 [compound 200, 4-[[5-[5-[bis(2-methoxyethyl)amino]-3-pyridyl]-1,2,4-oxadiazol-3-yl]methyl]-3,5-difluoro-benzenecarbohydroxamic acid] | 32 | 102 | 96 |  | 8 | 37 |  |
| O=C(NO)c1cc(F)c(Cc2noc(-c3cncc(N4CC5(COC5)C4)c3)n2)c(F)c1 [compound 201, 3,5-difluoro-4-[[5-[5-(2-oxa-6-azaspiro[3.3]heptan-6-yl)-3-pyridyl]-1,2,4-oxadiazol-3-yl]methyl]benzenecarbohydroxamic acid] | 34 | 88 | 95 |  | 16 |  | 75 |
